This experiment has as its target T1, KRAS G12C 1-169, his-tagged protein, GDP-loaded (Homo sapiens, UniProt P01116, G12C).
T1 construct: KRAS G12C 1-169, his-tagged protein, GDP-loaded
In words: Biochemical assay: covalent binding to KRAS G12C, analyzed by mass spectrometry. The note with it: percent of KRAS G12C protein covalently bound to test compound; 2 μm protein, room temperature. Here is the method:
Test compounds were prepared as 10 mM stock solutions in DMSO (Fisher cat# BP-231-100). KRAS G12C 1-169, his-tagged protein, GDP-loaded was diluted to 2 μm in buffer (20 mM Hepes, 150 mM NaCl, 1 mM MgCl2). Compounds were tested for activity as follows:
Compounds were diluted to 50× final test concentration in DMSO in 96-well storage plates. Compound stock solutions were vortexed before use and observed carefully for any sign of precipitation. Dilutions were as follow: • For 100 μM final compound concentration, compounds were diluted to 5000 μM (5 μl 10 mM compound stock+5 μl DMSO and mixed well by pipetting. • For 30 μM final compound concentration, compounds were diluted to 1500 μM (3 μl 10 mM compound stock+17 μl DMSO) and mixed well by pipetting. • For 10 μM final compound concentration, compounds were diluted to 500 μM (2 μl 10 mM compound stock+38 μl DMSO) and mixed well by pipetting. 49 μl of the stock protein solution was added to each well of a 96-well PCR plate (Fisher cat#1423027). 1 μl of the diluted 50× compounds were added to appropriate wells in the PCR plate using 12-channel pipettor. Reactions were mixed carefully and thoroughly by pipetting up/down with a 200 μl multi-channel pipettor. The plate was sealed well with aluminum plate seal, and stored in drawer at room temperature for 24 hrs. 5 μl of 2% formic acid (Fisher cat# A117) in DI H2O was then added to each well followed by mixing with a pipette. The plate was then resealed with aluminum seal and stored on dry ice until analyzed as described below.
The above described assays were analyzed by mass spectrometry according to the following procedure:
The MS instrument is set to positive polarity, 2 GHz resolution, and low mass (1700) mode and allowed to equilibrate for 30 minutes. The instrument is then calibrated, switched to acquisition mode and the appropriate method loaded.
After another 30 minute equilibration time, a blank batch (i.e., buffer) is run to ensure equipment is operating properly. The samples are thawed at 37° C. for 10 minutes, briefly centrifuged, and transfer to the bench top. Wells A1 and H12 are spiked with 1 uL 500 uM internal standard peptide, and the plates centrifuged at 2000×g for 5 minutes. The method is then run and masses of each individual well recorded.
The masses (for which integration data is desired) for each well are pasted into the platemap and exported from the analysis. Masses for the internal standards are exported as well. The data at 50 ppm is extracted for the +19 charge state, and identity of well A1 is assigned using the internal standard spike and integrated. Peak data is exported as a TOF list and the above steps are repeated individually, for the +20, 21, 22, 23, 24, and 25 charge states.

As for `C=CC(=O)N1CCN(c2ncc(-c3cc(O)ccc3Cl)cn2)CC1` [Compound 7, 1-(4-(5-(2-chloro-5-hydroxyphenyl)pyrimidin-2-yl)piperazin-1-yl)prop-2-en-1-one], the Binding % entry is “++ (indicates binding activity greater than 10% and up to 20%)”.

With `C=CC(=O)N1CCN(Cc2ccc(-c3c(C)ccc4[nH]ncc34)cc2)CC1` [Compound 16, 1-(4-(4-(5-methyl-1H-indazol-4-yl)benzyl)piperazin-1-yl)prop-2-en-1-one], the Binding % result was “+ (indicates binding activity from 5% to 10%)”.

Consider `C=CC(=O)N1CCN(c2ccc(-c3cc(O)ccc3Cl)cn2)CC1` [Compound 8, 1-(4-(5-(2-chloro-5-hydroxyphenyl)pyridin-2-yl)piperazin-1-yl)prop-2-en-1-one], for which the Binding % entry was “++ (indicates binding activity greater than 10% and up to 20%)”.

In the case of `C=CC(=O)N1CCN(c2ccc(-c3cc(O)cc(Cl)c3Cl)cc2)CC1` [Compound 4, 1-(4-(2′,3′-dichloro-5′-hydroxybiphenyl-4-yl)piperazin-1-yl)prop-2-en-1-one], the Binding % entry was “+++ (indicates binding activity greater than 20% and up to 30%)”.

Turning to `C=CC(=O)N1CCN(c2ccc(-c3c(O)cccc3F)cc2)CC1` [Compound 25, 1-(4-(2′-fluoro-6′-hydroxybiphenyl-4-yl)piperazin-1-yl)prop-2-en-1-one], the Binding % entry is given as “+ (indicates binding activity from 5% to 10%)”.

As for `C=CC(=O)N1CCC(Cn2ccc(-c3cc(O)ccc3Cl)cc2=O)CC1` [Compound 12, 1-((1-acryloylpiperidin-4-yl)methyl)-4-(2-chloro-5-hydroxyphenyl)pyridin-2(1H)-one], the Binding % entry was “++ (indicates binding activity greater than 10% and up to 20%)”.

For the compound `C=CC(=O)N1CCN(Cc2ccc(-c3cc(O)ccc3Cl)c(Cl)c2)CC1` [Compound 18, 1-(4-((2,2′-dichloro-5′-hydroxybiphenyl-4-yl)methyl)piperazin-1-yl)prop-2-en-1-one], the Binding % entry is “++ (indicates binding activity greater than 10% and up to 20%)”.

Take `C=CC(=O)N1CCN(c2ccc(-c3c(C)ccc4[nH]ncc34)c3cn[nH]c23)CC1` [Compound 26, 1-(4-(5′-methyl-1H,1′H-4,4′-biindazol-7-yl)piperazin-1-yl)prop-2-en-1-one]: the Binding % entry is “+ (indicates binding activity from 5% to 10%)”.

As for `C=CC(=O)N1CCN(c2ccc(-c3cc(O)ccc3Cl)cc2)CC1` [Compound 1, 1-(4-(2′-chloro-5′-hydroxybiphenyl-4-yl)piperazin-1-yl)prop-2-en-1-one], the Binding % entry is listed as “++++ (indicates binding activity greater than 30%)”.

Consider `C=CC(=O)N1CCN(Cc2ccc(-c3cc(O)ccc3Cl)cc2)CC1` [Compound 17, 1-(4-((2′-chloro-5′-hydroxybiphenyl-4-yl)methyl)piperazin-1-yl)prop-2-en-1-one], for which the Binding % result was “++ (indicates binding activity greater than 10% and up to 20%)”.

For the compound `C=CC(=O)N1CCN(c2ccc(-c3cc(O)ccc3Cl)cc2C(N)=O)CC1` [Compound 14, 4-(4-acryloylpiperazin-1-yl)-2′-chloro-5′-hydroxybiphenyl-3-carboxamide], the Binding % result was “+++ (indicates binding activity greater than 20% and up to 30%)”.

Take `C=CC(=O)N1CCN(Cc2ccc(-c3cc(O)ccc3Cl)cc2O)CC1` [Compound 20, 1-(4-((2′-chloro-3,5′-dihydroxybiphenyl-4-yl)methyl)piperazin-1-yl)prop-2-en-1-one]: the Binding % result was “+++ (indicates binding activity greater than 20% and up to 30%)”.

For the compound `C=CC(=O)N1CCN(Cc2ccc(-c3c(C)ccc4[nH]ncc34)c(Cl)c2)CC1` [Compound 19, 1-(4-(3-chloro-4-(5-methyl-1H-indazol-4-yl)benzyl)piperazin-1-yl)prop-2-en-1-one], the Binding % entry was “++ (indicates binding activity greater than 10% and up to 20%)”.

`C=CC(=O)N1CCN(c2ccc(-c3cc(O)ccc3Cl)cc2C#N)CC1` [Compound 9, 4-(4-acryloylpiperazin-1-yl)-2′-chloro-5′-hydroxybiphenyl-3-carbonitrile]: the Binding % entry is “++++ (indicates binding activity greater than 30%)”.

Take `C=CC(=O)N1CCN(c2ccc(-c3cc(O)ccc3Cl)c(C(N)=O)c2)CC1` [Compound 10, 4-(4-acryloylpiperazin-1-yl)-2′-chloro-5′-hydroxybiphenyl-2-carboxamide]: the Binding % result was “+++ (indicates binding activity greater than 20% and up to 30%)”.

Take `C=CC(=O)N1CCN(c2ccc(-c3c(C)ccc4[nH]ncc34)cc2)CC1` [Compound 22, 1-(4-(4-(5-methyl-1H-indazol-4-yl)phenyl)piperazin-1-yl)prop-2-en-1-one]: the Binding % entry is on record as “+ (indicates binding activity from 5% to 10%)”.

As to `C=CC(=O)N1CCN(c2ccc(-c3ccc(O)cc3Cl)cc2)CC1` [Compound 23, 1-(4-(2′-chloro-4′-hydroxybiphenyl-4-yl)piperazin-1-yl)prop-2-en-1-one], the Binding % result was “+ (indicates binding activity from 5% to 10%)”.

For `C=CC(=O)N1CCN(c2ccc(-c3cc(OC)cc(Cl)c3Cl)cc2)CC1` [Compound 3, 1-(4-(2′,3′-dichloro-5′-methoxybiphenyl-4-yl)piperazin-1-yl)prop-2-en-1-one], the Binding % entry was “+ (indicates binding activity from 5% to 10%)”.

For the compound `C=CC(=O)N1CCN(Cc2ccc(-c3ccccc3C(F)(F)F)cc2)CC1` [Compound 15, 1-(4-((2′-(trifluoromethyl)biphenyl-4-yl)methyl)piperazin-1-yl)prop-2-en-1-one], the Binding % entry is on record as “+ (indicates binding activity from 5% to 10%)”.

`C=CC(=O)N1CCN(c2ccc(-c3cc(O)ccc3Cl)c3cn[nH]c23)CC1` [Compound 24, 1-(4-(4-(2-chloro-5-hydroxyphenyl)-1H-indazol-7-yl)piperazin-1-yl)prop-2-en-1-one]: the Binding % result is listed as “++++ (indicates binding activity greater than 30%)”.

Regarding `C=CC(=O)N1CCN(c2ccc(-c3cc(O)ccc3Cl)c(C#N)c2)CC1` [Compound 11, 4-(4-acryloylpiperazin-1-yl)-2′-chloro-5′-hydroxybiphenyl-2-carbonitrile], the Binding % result is “+++ (indicates binding activity greater than 20% and up to 30%)”.

On to `C=CC(=O)N1CCN(Cc2ccc(-c3ccccc3C(F)(F)F)cc2O)CC1` [Compound 21, 1-(4-((3-hydroxy-2′-(trifluoromethyl)biphenyl-4-yl)methyl)piperazin-1-yl)prop-2-en-1-one], for which the Binding % entry is reported as “+ (indicates binding activity from 5% to 10%)”.

Take `C=CC(=O)N1CCC(Cn2ccc(-c3ccccc3C(F)(F)F)cc2=O)CC1` [Compound 13, 1-((1-acryloylpiperidin-4-yl)methyl)-4-(2-(trifluoromethyl)phenyl) pyridin-2(1H)-one]: the Binding % entry is “+ (indicates binding activity from 5% to 10%)”.

Regarding `C=CC(=O)N1CCN(c2ccc(-c3cc(O)ccc3CC)cc2)CC1` [Compound 5, 1-(4-(2′-ethyl-5′-hydroxybiphenyl-4-yl)piperazin-1-yl)prop-2-en-1-one], the Binding % entry is recorded as “++++ (indicates binding activity greater than 30%)”.

On to `C=CC(=O)N1CCC(n2ccc(-c3cc(O)ccc3Cl)cc2=O)CC1` [Compound 6, 1-(1-acryloylpiperidin-4-yl)-4-(2-chloro-5-hydroxyphenyl)pyridin-2(1H)-one], for which the Binding % entry was “++ (indicates binding activity greater than 10% and up to 20%)”.

For the compound `C=CC(=O)N1CCN(c2ccc(-c3cc(O)cc(Cl)c3)cc2)CC1` [Compound 2, 1-(4-(3′-chloro-5′-hydroxybiphenyl-4-yl)piperazin-1-yl)prop-2-en-1-one], the Binding % entry was “++ (indicates binding activity greater than 10% and up to 20%)”.
